Measurements as given in patent US20090192101A1, “CANCER-SPECIFIC PROMOTERS” (priority 2006, published 2009).

How the values were obtained:
breast cancer cell lines = experiment: Transient luciferase assay of promoter activity (electroporation, 24 hrs); assay type: cell-based, human; conditions: breast cancer cell lines such as T47D, MDA-MB-435, 2 μg vector
Procedure: (§1) Cells (1×10^6) were transfected with 2 μg pGl3-FASN-luciferase vector, as well as 0.2 μg pRL-TK as internal standards by electroporation. The luciferase activity was measured after 24 hrs.
(§2) In FIG. 2, the promoter activities of tight junction protein Claudin 4 in human normal and cancer cells is shown. Cells (1×10^6) were transfected with 2 μg pGl3-claudin 4 luciferase vector, as well as 0.2 μg pRL-TK as internal standards by electroporation. The luciferase activity was measured after 24 hrs.
(§3) Cells (1×10^6) were transfected with 2 μg VISA-claudin 4 or VISA-fatty acid synthase promoter vector, as well as 0.2 μg pRL-TK as internal standards by electroporation. The luciferase activity was measured after 24 hrs.
(§4) 1×10^6 cells were transfected with 2 μg pGl3-FASN-luciferase vector, as well as 0.2 μg pRL-TK as internal standards by electroporation. The luciferase activity was measured after 24 hrs. […]
(§5) Expression of claudin 4 promoter was ascertained in breast cancer cell lines, normal cell lines, and other cancer cell lines by transient luciferase assay. […] The luciferase activity was measured after 24 hrs. […]
(§6) 1×10^6 cells were transfected with 2 μg pGL3-VISA-Claudin4-Luc or pGL3-VISA-FASN-Luc plasmid, as well as 0.2 μg pRL-TK as internal standards by electroporation. The luciferase activities were measured 24 hrs after transient transfection. […]

[1] = tested on: normal and other cancer cell lines; experiment: as above; assay type: cell-based, human; conditions: 2 μg vector
Procedure: as §1, §2, §3, §4, §5, §6

[2] = tested on: human normal and cancer cells; experiment: Transient luciferase assay, promoter activity compared to CMV promoter; assay type: cell-based; conditions: electroporation, 24 hrs
Procedure: The activities of claudin 4 and fatty acid synthase promoters were compared to CMV promoter. […] 1×10^6 cells were transfected with 2 μg pGl3-claudin 4 luciferase vector, as well as 0.2 μg pRL-TK as internal standards by electroporation. The luciferase activity was measured after 24 hrs. The activities of claudin 4 and fatty acid synthase promoters were much weaker than that of CMV promoter, and were about 0.5% and 5% of CMV expression activity, respectively.

Substance: FASN promoter: fatty acid synthase promoter driving luciferase in pGl3 vector
- promoter activity (luciferase) in breast cancer cell lines (breast cancer cell lines): highly expressed
- promoter expression (luciferase) in normal and other cancer cell lines [1]: low
- promoter activity as % of CMV expression activity [2]: ~5%
